For assay [1], the system named is KRAS G12D mutant human metastatic pancreatic cancer cell AsPc-1. Kind of assay: 3D cell proliferation inhibition assay, AsPc-1. Format: cell-based. To be noted: ASPC1, 168 h, AsPc-1, 7 days, CTG, numeric values. The method, boiled down:
(§1)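 Cells were seeded at 5×10^2 cells/well in low-adsorption plates with compound (10000–0.026 nM final, 0.2% DMSO) and grown for 7 days at 37 °C, 5% CO2. Viability was read by CTG luminescence after 60 min at room temperature. IC50 came from log concentration–inhibition curve fits, normalised to DMSO and medium-only controls.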

The test system of assay [2] is KRAS G12D mutant human pancreatic cancer cell HPAC. Kind of assay: 3D cell proliferation inhibition assay, HPAC. The assay is classed as cell-based. To be noted: 168 h, 7 days, CTG. The method, boiled down: as §1
For assay [3], the target named is T1, KRAS-G12D (Homo sapiens, UniProt P01116, G12D).
T1 construct: endogenous in cells; host or cells: A-427 (ATCC), AGS, AsPc-1, Panc 04.03
Kind of assay: KRAS-G12D degradation assay (Western Blot), A-427 cells. Format: cell-based. To be noted: A427 cells, 24 h; for Dmax: A-427. The method, boiled down: (§2)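 Each KRAS G12D mutant line (A-427, AGS, AsPc-1, Panc 04.03) was seeded at 5×10^5 cells/well and treated 24 h at 37 °C with 0.03–3000 nM compound (final DMSO 0.25%). KRAS in lysates was measured by Western blot, normalized to β-actin and compared with controls, giving DC50 and Dmax from curve fits.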
For orientation: A western blot detects proteins with antibodies after separation by electrophoresis.

The target of assay [4] is T1, KRAS-G12D. Kind of assay: KRAS-G12D degradation assay (Western Blot), AsPc-1 cells. The assay is classed as cell-based. The conditions noted are these: for DC50: 24 h; for Dmax: ASPC1, 24 h. The method, boiled down:
as §2

Assay [5] relates to KRAS G12D mutant human lung cancer cell A427. Kind of assay: 3D cell proliferation inhibition assay, A427. To be noted: A-427, 168 h, A427, 7 days, CTG. Format: cell-based. In short, it runs like this:
as §1

The target of assay [6] is T1, KRAS-G12D. Nature of the assay: KRAS-G12D degradation assay (Western Blot), Panc 04.03 cells. To be noted: 24 h. Format: cell-based. How it is done:
(§3) The degradation effects of the compounds on KRAS-G12D were investigated on KRAS G12D mutant human lung cancer cell A-427 (ATCC), KRAS G12D mutant human gastric cancer cell AGS, KRAS G12D mutant human metastatic pancreatic cancer cell AsPc-1, and KRAS G12D mutant human pancreatic adenocarcinoma cell Panc 04.03. The specific procedures were as follows: 0.95 mL of cells were seeded into each well of a 24-well cell culture plate to achieve a cell density of 5×10^5 cells/well; and the cell plate was incubated in an incubator at 37° C. with 5% CO2 overnight. Then 50 μL of the compound solution after dilution was added to each of the wells with the corresponding cells, so that the final concentration of the compound was in a range of 0.03-3000 nM. The final concentration of DMSO was 0.25%. After the compounds were added, the cell plate was incubated in the incubator at 37° C. with 5% CO2 for 24 h. The culture medium in the 24-well cell culture plate was removed, and the plate was washed twice with 1×PBS (KeyGEN). 120 μL of RIPA (strong) lysis buffer (Beyotime) supplemented with 1 mM phenylmethylsulfonyl fluoride, a protease inhibitor mixture (Beyotime), and a protease phosphatase inhibitor mixture (Beyotime) was added to lyse adherent A-427 cells at the bottom of the cell culture plate. After the plate was left to stand on ice for 30 min, the protein lysate in each well was transferred to a 1.5 mL centrifuge tube and centrifuged at 15000 g for 20 min at 4° C. The cell lysate supernatants after centrifugation were cryopreserved in a refrigerator at −80° C. for later use.
(§4) After the samples of the cell lysate supernatants that had been prepared were thawed from the refrigerator at −80° C., the total protein concentrations of the cell lysates were determined using a BCA protein quantification kit (Tiangen). The total protein concentrations of the samples were then adjusted to 0.5 μg/μL with PBS and 5×SDS-PAGE protein loading buffer (Beyotime), and the samples were incubated in a water bath at 100° C. for 15 min. The samples were then incubated in an ice bath for 5 min and centrifuged at 14000 g for 1 min at 4° C., and the supernatants were mixed well as loading samples for the Western Blot assay. The samples were loaded into wells of a 10% precast gel (KeyGEN) with a loading volume of 10 μL (total protein: 5 μg), a sufficient Tris-MOPS-SDS running buffer (Adamas) was added, and then electrophoresis was performed at a constant voltage of 120 V for 55 min. After the electrophoresis, the proteins on the gel were transferred to PVDF membranes at a constant current of 250 mA for 55 min. After the membrane transfer, the PVDF membranes were incubated in 1× Quick Block blocking buffer (Beyotime) at room temperature for 30 min. After the blocking, the PVDF membranes were separately incubated at 4° C. overnight with the KRAS antibody (Abcam) diluted in a ratio of 1:1000 and the […] antibody (Abcam) diluted in a ratio of 1:2000 in 5% BSA as the diluent, and then washed with 1×TBST buffer (2.4 g of Tris, 8.8 g of NaCl, 1.5 mL of Tween 20, with pH adjusted to 7.4, with the volume brought to 1 L) 3 times for 10 min/time. The membranes were incubated with a secondary antibody (Abcam) diluted in 5% BSA at room temperature for 2 h, and then washed with 1×TBST buffer 3 times for 10 min/time. Finally, the membranes were incubated with Clarity Western ECL Substrate (BIO-RAD) for 5 min for luminescence and color development, and a ChemiScope 6200 Touch chemiluminescence imaging system (Clinx) was used for color development and protein mapping. Gray value analysis of the protein maps was performed using the chemiluminescence analysis software (Clinx). The gray correction value for each sample was calculated using the formula: gray correction value=(gray value of target protein/gray value of corresponding internal reference)×10^3. Then degradation rates were calculated by comparison with the gray correction value of the control group. […]

Assay [7] has as its system KRAS G12D mutant human gastric cancer cell AGS. Nature of the assay: 3D cell proliferation inhibition assay, AGS. Format: cell-based. The conditions noted are these: 168 h, 7 days, CTG. In short, it runs like this: as §1
Assay [8] has as its system KRAS G12D mutant human pancreatic cancer cell Panc 04.03. Kind of assay: 3D cell proliferation inhibition assay, Panc 04.03. The conditions noted are these: 168 h, Panc 04.03, 7 days, CTG, numeric values. The assay is classed as cell-based. In short, it runs like this:
as §1

The target in assay [9] is T1, KRAS-G12D. Nature of the assay: KRAS-G12D degradation assay (Western Blot), AGS cells. Format: cell-based. The conditions noted are these: 24 h. How it is done: as §3, §4
For assay [10], the target named is T2, Human KRAS G12D 6His-tagged (Homo sapiens, UniProt P01116, G12D).
T2 construct: purchased PerkinElmer
Nature of the assay: KRAS-G12D/GTP binding assay (HTRF). To be noted: class symbols. The method, boiled down: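 HTRF kit format: 6His-tagged KRAS G12D incubated with compound (final 0.02-5000 nM, 0.5% DMSO), anti-6His Eu cryptate antibody and GTP Red reagent for 1 h at 25° C. 665/620 nm ratio versus control gave inhibition rates; IC50 by nonlinear fit.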
Background: Time-resolved FRET reads energy transfer from a long-lived donor to a nearby acceptor.

SMILES strings stand for the structures.

T1 sequence (P01116 1-188 isoform P01116-2 G12D): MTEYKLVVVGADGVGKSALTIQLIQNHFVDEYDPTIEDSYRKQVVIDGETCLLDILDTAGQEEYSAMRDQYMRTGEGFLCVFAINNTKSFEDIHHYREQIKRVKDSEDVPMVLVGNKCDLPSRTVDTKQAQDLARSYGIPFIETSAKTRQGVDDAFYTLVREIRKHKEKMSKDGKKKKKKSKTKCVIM
T2 sequence (P01116 1-188 isoform P01116-2 G12D): as above

A word on the IC50: it is the concentration at which inhibition is half-maximal. As a reminder, the DC50 is the concentration giving 50% degradation. A lower DC50 goes with degradation at low concentration. Usually Dmax stands for the greatest extent of degradation seen. A low value points to a partial loss of target. For `C#Cc1c(F)ccc2cc(O)cc(-c3ccc4c(N5CC6CCC(C5)N6)nc(OCC5(CN6CCN(CC7CCC8(CC7)CCN(C(=O)c7ccc(OC)c(N9CCC(=O)NC9=O)c7)CC8)CC6)CC5)nc4c3F)c12` [Example 71, 1-(5-(9-((4-((1-(((4-(3,8-diazabicyclo[3.2.1]octan-3-yl)-7-(8-ethynyl-7-fluoro-3-hydroxynaphthalen-1-yl)-8-fluoroquinazolin-2-yl)oxy)methyl)cyclopropyl)methyl)piperazin-1-yl)methyl)-3-azaspiro[5.5]undecane-3-carbonyl)-2-methoxyphenyl)dihydropyrimidine-2,4(1H,3H)-dione], the half-inhibitory concentration (IC50) in assay [1] turned out to be 5.28 nM; in assay [2] it was 9.31 nM; in [5] (numeric values) it was 46.8 nM; in [7] (numeric values) it was 4.17 nM; in assay [8], 16.7 nM. The DC50 came to 2.1 nM on KRAS-G12D [3] (numeric values), 4.76 nM at KRAS-G12D [4], 11.9 nM at KRAS-G12D [6] and 7.02 nM at KRAS-G12D [9]. Further, the Dmax at KRAS-G12D [3] (numeric values) stood at 95%; on KRAS-G12D [4], 98.6%; at KRAS-G12D [6], 98.8%; at KRAS-G12D [9], 99.6%.
For `[2H]C([2H])([2H])c1ccc(C(=O)N2CCC3(CCC(CN4CCN(C[C@@H](C)COc5nc(N6CC7CCC(C6)N7)c6cnc(-c7cc(O)cc8ccc(F)c(C#C)c78)c(F)c6n5)CC4)CC3)CC2)cc1N1CCC(=O)NC1=O` [Example 109, 1-(5-(9-((4-((R)-3-((4-(3,8-diazabicyclo[3.2.1]octan-3-yl)-7-(8-ethynyl-7-fluoro-3-hydroxynaphthalen-1-yl)-8-fluoropyrido[4,3-d]pyrimidin-2-yl)oxy)-2-methylpropyl)piperazin-1-yl)methyl)-3-azaspiro[5.5]undecane-3-carbonyl)-2-(methyl-d3)phenyl)dihydropyrimidine-2,4(1H,3H)-dione], the IC50 in assay [1] was found to be 1.42 nM; in assay [2] it was 1.62 nM; in assay [7] (numeric values) it was 3.98 nM; in assay [8], 6.73 nM. Also, the DC50 at KRAS-G12D [4] amounted to 0.64 nM; on KRAS-G12D [9], 4.8 nM. In addition, the results for the Dmax on KRAS-G12D [4] and at KRAS-G12D [9] were 98.8% and 94.5%, respectively.
Take `Cc1ccc(C(=O)N2CCC3(CCC(CN4CCN(CC5(COc6nc(N7CC8CCC(C7)N8)c7cnc(-c8cc(O)cc(Cl)c8C8CC8)c(F)c7n6)CC5)CC4)CC3)CC2)cc1N1CCC(=O)NC1=O` [Example 81, 1-(5-(9-((4-((1-(((4-(3,8-diazabicyclo[3.2.1]octan-3-yl)-7-(3-chloro-2-cyclopropyl-5-hydroxyphenyl)-8-fluoropyrido[4,3-d]pyrimidin-2-yl)oxy)methyl)cyclopropyl)methyl)piperazin-1-yl)methyl)-3-azaspiro[5.5]undecane-3-carbonyl)-2-methylphenyl)dihydropyrimidine-2,4(1H,3H)-dione]: the half-inhibitory concentration (IC50) came out at 13 nM in assay [1]; 4.37 nM in [2]; 67.1 nM in assay [5] (numeric values); 5.52 nM in assay [7] (numeric values); 27.8 nM in assay [8]. Moreover, the figures for the DC50 on KRAS-G12D [3] (numeric values), on KRAS-G12D [4] and on KRAS-G12D [9] were 16.8 nM, 17.8 nM and 2.99 nM, respectively. In addition, the greatest degradation seen (Dmax) on KRAS-G12D [3] (numeric values) was 76.5%; on KRAS-G12D [4], 98.2%; on KRAS-G12D [9], 80.3%.
With `C#Cc1cccc2cc(O)cc(-c3ncc4c(N5CC6CCC(C5)N6)nc(OCC5(CN6CCN(CC7CCC8(CC7)CCN(C(=O)c7ccc(C)c(N9CCC(=O)NC9=O)c7)CC8)CC6)CC5)nc4c3F)c12` [Example 55, 1-(5-(9-((4-((1-(((4-(3,8-diazabicyclo[3.2.1]octan-3-yl)-7-(8-ethynyl-3-hydroxynaphthalen-1-yl)-8-fluoropyrido[4,3-d]pyrimidin-2-yl)oxy)methyl)cyclopropyl)methyl)piperazin-1-yl)methyl)-3-azaspiro[5.5]undecane-3-carbonyl)-2-methylphenyl)dihydropyrimidine-2,4(1H,3H)-dione], the concentration for half-maximal inhibition (IC50) in assay [2] was 4.28 nM; in assay [5] (class symbols) it was at most 50 nM; in [7] (class symbols), at most 50 nM; in [10], at most 50 nM. Besides, the 50% degradation concentration (DC50) at KRAS-G12D [3] (class symbols) was at most 50 nM; on KRAS-G12D [4], 11.1 nM; on KRAS-G12D [6] it was 4.08 nM; on KRAS-G12D [9], 1.91 nM. Besides, the maximal degradation (Dmax) on KRAS-G12D [3] (class symbols) is 80 to 100%; on KRAS-G12D [4], 95.2%; at KRAS-G12D [6], 98.6%; at KRAS-G12D [9], 99.2%.
As to `C#Cc1c(F)ccc2cc(O)cc(-c3ncc4c(N5CC6CCC(C5)N6)nc(OC[C@H](C)CN5CCN(CC6CCC7(CC6)CCN(C(=O)c6ccc(OC)c(N8CCC(=O)NC8=O)c6)CC7)CC5)nc4c3F)c12` [Example 90], the 50% inhibitory concentration (IC50) was 1.19 nM in assay [1]; 2.44 nM in [2]; 28.3 nM in assay [5] (numeric values); 0.65 nM in assay [7] (numeric values); 8.82 nM in [8]. The results for the DC50 at KRAS-G12D [3] (numeric values), on KRAS-G12D [4] and at KRAS-G12D [9] were 0.86 nM, 1.87 nM and 10.6 nM, respectively. The values for the Dmax at KRAS-G12D [3] (numeric values), at KRAS-G12D [4] and on KRAS-G12D [9] were 95.6%, 100% and 98.9%, respectively.

(Values after patent US20260166159A1, “KRAS G12D DEGRADATION AGENT, AND PREPARATION METHOD AND USE THEREFOR” (LEADINGTAC PHARMACEUTICAL (SHAOXING) CO., LTD., priority 2022, published 2026).)
